US12565687B2, “Glucose in solid form and process for manufacturing glucose in solid form” (CARGILL, INCORPORATED, priority 2021, dated 2026)

Assay: Dissolution speed test in distilled water
Type: physicochemical
Details: 1.5 g solid, particle sizes 425-600 μm, stirred in distilled water at ambient temperature
Experimental: Dissolution speed tests of the produced semi-crystalline particles were performed by comparison with the dissolution speed of pure crystalline glucose i.e. glucose monohydrate. Two comparative runs were carried out by using an initial mass of 1.5 g of solid inventive semi-crystalline glucose particles vs. crystalline glucose monohydrate, both having particle sizes in the range of 425-600 μm. The solid was stirred in a cylindrical vessel with distilled water at ambient temperature. In both the runs the solid disappearance was detected after 25 s, showing an equal dissolution speed of the produced semi-crystalline glucose in comparison to the crystalline glucose monohydrate.

O.O=C[C@H](O)[C@@H](O)[C@H](O)[C@H](O)CO [crystalline glucose monohydrate, glucose monohydrate]
time until solid disappearance was detected (dissolution speed): 25 s
